Test results published in PMC12698594, “A natural PCID2-Targeting compound suppresses hepatocellular carcinoma progression: evidence from structure-based discovery and biological evaluation” (Frontiers in Pharmacology, 2025).

Molecular target: T1, PCID2 (PCI-domain containing protein 2) (Homo sapiens, UniProt Q5JVF3)
T1 construct: amine-type direct coupling to CM5 chip; DSS1 not mentioned in the SPR test
Assay: SPR (Biacore, CM5 chip, […] Langmuir global fit)
Format: binding

T1 sequence (Q5JVF3 2-399): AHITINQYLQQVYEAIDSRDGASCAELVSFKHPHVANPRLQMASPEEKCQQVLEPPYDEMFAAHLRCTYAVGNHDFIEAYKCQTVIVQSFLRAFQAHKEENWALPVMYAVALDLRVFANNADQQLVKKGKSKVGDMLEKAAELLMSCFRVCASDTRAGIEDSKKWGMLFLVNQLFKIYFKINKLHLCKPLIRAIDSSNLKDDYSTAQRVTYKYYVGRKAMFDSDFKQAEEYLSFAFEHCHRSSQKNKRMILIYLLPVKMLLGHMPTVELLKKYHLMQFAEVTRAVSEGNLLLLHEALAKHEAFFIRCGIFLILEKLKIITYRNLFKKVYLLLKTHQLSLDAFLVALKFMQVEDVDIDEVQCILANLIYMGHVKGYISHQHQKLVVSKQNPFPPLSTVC

Kd: 5.27 µM
SMILES: O=C(OC[C@H]1O[C@@H](OC(=O)c2cc(O)c(O)c(O)c2)[C@H](OC(=O)c2cc(O)c(O)c(O)c2)[C@@H](OC(=O)c2cc(O)c(O)c(O)c2)[C@@H]1OC(=O)c1cc(O)c(O)c(O)c1)c1cc(O)c(O)c(O)c1 [#02, 1,2,3,4,6-Penta-O-galloyl-β-D-glucose]
